Entries after “also recorded” stand apart in the source; their conditions may differ.

Data set [1] can be described thus: Human serum stability (radio-TLC/ITLC, size exclusion chromatography). The format is in vitro ADME. To be noted: for In vitro stability (Radio-TLC): Serum, n = 3; for degradation in human serum (radio-ITLC): human serum proteins, 7 days at 37° C. On the procedure: (§1) Lipophilicity (Log P) will be determined using the water:octanol method. Briefly, the water:octanol (1:1) solution containing the ^89Zr-complex (0.19 MBq) will be vortexed (5 min) and then centrifuged (5 minutes at 17,000 rpm). After separation, aliquots from each layer will be counted separately in the gamma counter, and Log P will be calculated as the ratio of counts in the octanol fraction to counts in the aqueous fraction. In vitro stability will be determined by incubating each ^89Zr complex at 37° C. in the presence 500 μL of DTPA (50 mM, pH 7 or pH 5), 500 μL of EDTA (50 mM, pH 7 or pH 5), or 500 μL of human serum (at 37° C.). The different pH environments will be meant to reflect the pH environments in normal blood (pH 7) or the lysosome (pH 5). Samples will be analyzed over the course of 7 days using radio-TLC and radio-HPLC.
To further characterize the stability of Zr-tetraazamacrocycle complexes and preliminarily assess their suitability for in vivo applications, each radiometal complex was incubated with human serum proteins for 7 days at 37° C.
Any ^89Zr transchelated to serum proteins is expected to be complexed by EDTA and move to the solvent front in this system.
In general terms: SEC sorts molecules by how far they enter the pores of the column.

Data set [2] is described as follows: Metal competition studies (demetallation by excess metal salts). The data set is classed as physicochemical. To be noted: for complex remaining intact: 7 days. As to the method:
Tetraazamacrocycles can chelate numerous, biologically relevant metal cations, and this property can potentially create a second mechanism for ^89Zr^4+ dissociation from its chelator in vivo. To assess the ability of the Zr-complexes to resist demetallation by another metal cation, metal competition studies were performed, in which the radiometal complex was mixed with an excess concentration of metal salts.

A short description of data set [3]: Small animal PET imaging in normal mice. The format is in vivo. Conditions: for radioactivity at 4 h (static PET): 4 h after injection; for radioactivity at 24 h (static PET): 24 h after injection; for excretion route (PET): mouse, in vivo. As to the method: Small animal PET/CT imaging will be conducted on the ^89Zr-AMCs identified from studies described above and in vivo biodistribution studies. NIH Swiss mice (n=6/cohort) will be injected with either ^89ZrCl4, ^89Zr-DFO (11 MBq (300 μCi)) or ^89Zr-AMC and imaged using 1 h dynamic scanning followed by static imaging at 4, 24, 48 h and 72 h p.i. […] All PET images will be co-registered with CT, to (a) allow more accurate selection of regions of interest to correspond with anatomy described by CT, and (b) reduce inaccuracies that result from partial volume effects, which can result in falsely low standard uptake values (SUVs) during data analysis. SUVs and the corresponding % ID/g will be determined from the co-registered PET/CT images using the formula SUV=[nCi/cc×animal weight/injected dose], and correlated to the biodistribution data.
Normal mice were injected with ^89Zr-DFO and ^89Zr-DOTA and dynamic PET imaging done from 0-60 minutes, followed by static imaging at 2, 4, and 24 hours after injection.

Data set [4] can be described thus: Acute in vivo biodistribution of ^89Zr-complexes in normal mice. More on the design: species or system NIH Swiss mice. To be noted: for radioactivity retention in bone tissue over time: up to 72 h. As to the method:
NIH Swiss mice (n=6/time point) will be injected with the ^89Zr-AMC (0.56 MBq (15 μCi)), and then sacrificed at 1, 4, 24, 48 and 72 h post-injection (p.i.). Organs of interest will be removed, weighed and counted on a gamma counter. Percent injected dose per gram (% ID/g) and percent injected dose per organ (% ID/organ) will be counted and compared to a weighed, counted standard for all groups.
The in vivo stability of ^89Zr-DOTA, ^89Zr-DOTP, and ^89Zr-DOTAM were then evaluated in acute biodistribution studies using female NIH Swiss mice (6-8 wk old, n=6). […] While surfactant was used in the injection formulation for biodistribution studies, it is hypothesized that once in the blood stream, ^89Zr-DOTAM aggregates with serum proteins, which are deposited in these tissues during circulation.

Data set [5] in a line: EDTA challenge, in vitro stability (radio-TLC). The format is physicochemical. Conditions: 50 mM EDTA, pH 5.5, n = 3.
Data set [6] is described as follows: EDTA challenge, in vitro stability (radio-TLC). The format is physicochemical. Conditions: for order of ^89Zr complex stability: based upon EDTA challenge studies. As to the method:
as §1, with “In vitro stability will be determined by incubating each ^89Zr complex at 37° C. in the presence 500 μL of DTPA (50 mM, pH 7 or pH 5), 500 μL of EDTA (50 mM, pH 7 or pH 5), or 500 μL of human serum (at 37° C.).” left out
Based upon our EDTA challenge studies, the order of ^89Zr complex stability can be described as ^89Zr-DOTA>>^89Zr-DOTP>^89Zr-DOTAM>^89Zr-DFO.

Data set [7] in a line: Lipophilicity (log P), water/octanol partition method. The format is physicochemical. On the procedure:
as §1

Data set [8] can be described thus: DTPA challenge, in vitro stability (radio-TLC). Conditions: 50 mM DTPA, n = 3. The format is physicochemical. As to the method:
as §1

The nature of data set [9]: In vitro solution behaviour (aggregation/precipitation). The data set is classed as physicochemical. To be noted: unless a low concentration of surfactant was included.

Turning to `[Cl][89Zr]([Cl])([Cl])[Cl]` [^89ZrCl4, reference compound], the “association with serum proteins (size exclusion chromatography)” value in data set [1] (unchelated ^89Zr control) is “found to be associated with serum proteins”.

Consider `O=C([O-])CN1CCN(CC(=O)[O-])CCN(CC(=O)[O-])CCN(CC(=O)[O-])CC1.[89Zr+4]` [^89Zr-DOTA], for which the “demetallation in metal competition” value in data set [2] (excess concentration of metal salts, 7-day experiment) is “No demetallation”. Moreover, the “In vitro stability (Radio-TLC)” value came to 100% in data set [1] (1 h); 100% in data set [1] (7 d); 100% in [5] (1 h); 100% in [5] (7 d); 100% in [8] (pH 5.5, 1 h); 100% in data set [8] (pH 5.5, 7 d). For the same compound, the “In vitro stability (Radio-TLC)” value in data set [8] (pH 7.0, 1 h) came out at 100%; in data set [8] (pH 7.0, 7 d), 100%. The “degradation in human serum (radio-ITLC)” value in [1] is listed as “no noticeable degradation”. Also, the “radioactivity at 4 h (static PET)” value in [3] was “nearly all the radioactivity was excreted”. Moreover, the “radioactivity at 24 h (static PET)” value in [3] is “barely above background levels”. Moreover, in data set [3] (dynamic PET 0-60 minutes), the “radioactivity in kidney and bone compared to ^89Zr-DFO (PET)” value is listed as “much lower”. In data set [3], the “excretion route (PET)” value is “excreted renally”. In [4] (72 hours, pilot data), the “reduction in radioactivity accumulation in the liver, kidney, and bone” value was ≥ 10%. In addition, the “radioactivity retained in blood, liver, kidney and bone compared to ^89Zr-DOTP” value in [4] (intravenous injection) was “retained significantly less radioactivity in their blood, liver, kidney and bone tissue”. The blood clearance entry in data set [4] (normal mice, n=6/group) is reported as “rapid blood clearance”. For the same compound, in [4] (normal mice, n=6/group), the “radioactivity retained in liver, kidney and bone compared to ^89Zr-DFO” value is “lower radioactivity retention in liver, kidney, and bone tissues; also recorded: retained less radioactivity in the liver, kidney and bone”. Moreover, the “radioactivity retention in bone tissue over time” value in data set [4] was “remained low with no statistically significant changes at any time point”. Besides, the “transchelation in EDTA challenge” value in data set [6] (100-, 500-, and 1000-fold excess of EDTA at pH 5 or pH 7 over 7 days) is on record as “did not experience transchelation”. Also, the “order of ^89Zr complex stability” value in data set [6] is “^89Zr-DOTA>>^89Zr-DOTP>^89Zr-DOTAM>^89Zr-DFO”. Besides, the “Lipophilicity (log P)” value in [7] is on record as “most hydrophilic characteristics”.

For `NC(=O)CN1CCN(CC(N)=O)CCN(CC(N)=O)CCN(CC(N)=O)CC1.[89Zr+4]` [^89Zr-DOTAM], in data set [9], the “behaviour in solution in vitro” value was “aggregated and precipitated out of solution”. In addition, in data set [1], the “degradation in human serum (radio-ITLC)” value was “no noticeable degradation”. Also, in data set [4] (female NIH Swiss mice, not excreted over 72 hour time course), the “radioactivity retained in liver and spleen” value was “retained elevated levels of radioactivity in liver and spleen tissues”. Further, the “order of ^89Zr complex stability” value in data set [6] is “^89Zr-DOTA>>^89Zr-DOTP>^89Zr-DOTAM>^89Zr-DFO”.

In the case of `O=P([O-])(O)CN1CCN(CP(=O)([O-])O)CCN(CP(=O)([O-])O)CCN(CP(=O)([O-])O)CC1.[89Zr+4]` [^89Zr-DOTP], in data set [1], the “degradation in human serum (radio-ITLC)” value is reported as “no noticeable degradation”. Further, in data set [4] (n=6/group), the “bone retention compared to ^89Zr-DFO” value was “Bone retention is higher”; the “radioactivity retained in liver and kidney compared to ^89Zr-DFO” value is “retained less radioactivity in the liver and kidney”. The “order of ^89Zr complex stability” value in data set [6] was “^89Zr-DOTA>>^89Zr-DOTP>^89Zr-DOTAM>^89Zr-DFO”. Moreover, the “Lipophilicity (log P)” value in data set [7] was “most hydrophilic characteristics”.

Regarding `CC(=O)N([O-])CCCCCNC(=O)CCC(=O)N([O-])CCCCCNC(=O)CCC(=O)N([O-])CCCCCN.[89Zr+4]` [^89Zr-DFO, reference compound], the complex remaining intact in data set [2] (challenged with Fe^3+) is reported as 33.9%; in data set [2] (challenged with Ga^3+), 72.6%. Also, the “In vitro stability (Radio-TLC)” value in data set [1] (1 h) is 100%; in [1] (7 d), 99.3 ± 0.1%; in data set [5] (1 h), 6.3 ± 0.8%; in [5] (7 d), 0%; in data set [8] (pH 5.5, 1 h), 7.3 ± 0.8%; in data set [8] (pH 5.5, 7 d) it was 0%. Further, the “In vitro stability (Radio-TLC)” value in data set [8] (pH 7.0, 1 h) is recorded as 90.3 ± 0.5%; in data set [8] (pH 7.0, 7 d) it was 40.6 ± 0.5%. In addition, in data set [1], the “degradation in human serum (radio-ITLC)” value is “no noticeable degradation”. Moreover, the “radioactivity at 4 h (static PET)” value in data set [3] is listed as “more radioactivity accumulated in the kidneys”. Further, in [3], the “radioactivity at 24 h (static PET)” value is “still visible in static images”. In addition, the “excretion route (PET)” value in [3] was “excreted renally”. Moreover, in [4] (normal mice, n=6/group), the blood clearance result is on record as “rapid blood clearance”. In [4], the “radioactivity retention in bone tissue over time” value is “increases over time”. Moreover, in data set [6] (1000-fold excess of EDTA, after 3 h), the “loss of metal ions in EDTA challenge” value is “completely lost metal ions”. The “order of ^89Zr complex stability” value in data set [6] is given as “^89Zr-DOTA>>^89Zr-DOTP>^89Zr-DOTAM>^89Zr-DFO”.
